Data on 1 compound can be found in patent publication US9573972B2, “Nurotoxic sterol glycosides” (priority 2008, dated 2017).

Data set [1] concerns Phosphorylated TDP-43 aggregates. As to the kind of experiment: TDP-43 immunofluorescence. The data set is classed as in vivo, mouse. Details: key to Phosphorylated TDP-43 aggregates: − = not present; + = present. Conditions: for Phosphorylated TDP-43 aggregates: SG-fed. How it is done:
Tissue-mounted slides were processed for fluorescence microscopy as follows: Sections were rinsed in coplin jars for 45 minutes at room temperature (RT) in three changes of PBS. Sections were then incubated at RT for 30 minutes in a blocking permeabilization solution made of 5% normal goat serum (NGS), 5% normal rabbit serum (NRS) or 5% BlokHen II (Ayes Labs, Inc., Tigard, Oreg.), 0.05% Triton X-100 and PBS. Subsequently, the blocking solution was tipped off and the slides were rinsed in PBS for 2 minutes. Sections were then incubated overnight in a humidified chamber at 4° C. with a PBS buffered solution that contained 1% NGS or 1% NRS, 1% bovine serum albumin (BSA) and one of the following primary antibodies: (a) rabbit anti-human/mouse ATF-3 (H-90) IgG (polyclonal, 1:500; Santa Cruz Biotechnology, Inc., Santa Cruz, Calif.), (b) anti-activated caspase-3 IgG (monoclonal, 1:250; Chemicon International, Temecula, Calif.) (see FIG. 9), (c) goat antihuman/mouse choline acetyl transferase (ChAT) IgG (polyclonal, 1:100; Chemicon International, Temecula, Calif.) (see FIG. 6), (d) rabbit anti-mouse glial fibrillary acidic protein IgG (polyclonal, 1:250; GeneTex Inc., San Antonio, Tex.) (see FIG. 7), (e) rabbit antihuman/mouse ionized calcium binding adaptor molecule 1 (IBA-1) IgG (polyclonal, 1:500; Wako Pure Chemical Industries, Ltd, Richmond, Va.), (f) mouse anti-human/mouse clone AT8 PHF-1 Tau (monoclonal, 1:200; Pierce Biotechnology Inc., Rockford, Ill.), (g) rabbit anti-human/mouse TAR DNA-binding protein 43 (TDP43) (1:100; ProteinTech Group Inc., Chicago, Ill.) (See FIG. 14), (h) chicken anti-human/mouse β-tubulin 3 (TuJ1 antigen) (polyclonal, 1:100, Ayes Labs, Inc., Tigard, Oreg.), (i) rabbit anti-mouse tyrosine hydroxylase (polyclonal, 1:500, Chemicon International, Temecula, Calif. or polyclonal 1:1000, Affinity BioReagents, Golden, Colo.) (FIG. 10), (j) rabbit anti human/mouse anti-pJunscr73 IgG (polyclonal, 1:200; Chemicon International, Temecula, Calif.), (k) rabbit anti human/mouse anti-HSP-70 IgG (polyclonal, 1:200; Chemicon International, Temecula, Calif.), or (1) rabbit anti human/mouse anti-HSP-25 IgG (polyclonal, 1:100; Chemicon International, Temecula, Calif.). In each experiment, additional slides were incubated with the primary antibody and the secondary antibody omitted or with secondary antibody and primary antibody omitted to test for nonspecific staining. Where appropriate, positive control slides (Alzheimer's disease patient entorhinal cortex, obtained from Drs. Claudia Schwab and Patrick McGeer of the Kinsmen Laboratory, University of British Columbia, Vancouver, BC, Canada) were also processed as above for comparison. […]

Data set [2] can be described thus: Body weights of SG-fed mice. The data set is classed as in vivo, mouse. Particulars: SG-fed vs age-matched controls; SG 1000 μg per pellet daily for 15 weeks. From the text: Five-month old male CD-1 mice (30.1-35.7 g, 7.5 cm-8.8 cm) were purchased from Charles River (Wilmington, Mass.). Adult mice were chosen to mimic the mean age of onset of ALS-PDC (Kurland, L. T. (1988a) Trends Neurosci. 11, 51-4; Kurland, L. T., et al. (1994) Amyotrophic lateral sclerosis-parkinsonism-dementia complex on Guam: epidemiologic and etiological perspectives. 109-131). Thirty mice for the SG study were randomly divided into 2 groups (14 control and 16 experimental animals). All animals were housed singly in a virus-free barrier facility in a room maintained at 22° C. under a 12 hour light/dark cycle. The mice were provided ad libitum access to food and water.
The synthetic SG was mixed with finely ground Purina Chow mouse pellets (Mouse Diet™, Purina) to create the experimental pellets with a SG content of 1000 μg per pellet. Dry materials were blended with a sterile silicon spatula. For every 5 g of standard feed, 2.5 mL of doubly-distilled water (dd)H2O was added and the dough was kneaded and round up into pellets. A single sterol glucoside containing pellet was placed in the feeding tray each morning before the addition of regular mouse chow (ad libitum). All experimental pellets were entirely consumed by the mice each day. […] SG feeding was conducted daily for 15 weeks and mice were behaviorally monitored until sacrifice at 35 weeks (time point 1) or 52 weeks (time point 2).

Structures are written as SMILES. Values joined by “and” are separate entries in the source; they are usually repeats but may differ in a detail not shown here. Identical values can stand only once. “Also recorded” adds a separate entry of the source.

Take `CC[C@H](/C=C/[C@@H](C)[C@H]1CC[C@H]2[C@@H]3CC=C4C[C@@H](O[C@@H]5O[C@H](CO)[C@@H](O)[C@H](O)[C@H]5O)CC[C@]4(C)[C@H]3CC[C@]12C)C(C)C` [SG, Stigmasterol β-D-Glucopyranoside]: the “Phosphorylated TDP-43 aggregates” value was “No abnormal translocation of TDP-43 was observed and −” in data set [1] (Time-point 1 (35 wk)); “+” in data set [1] (Time-point 2 (52 wk)). In addition, in data set [1] (Time-point 2 (52 wk), lumbar spinal cord), the “TDP-43 pathology, incidence in SG-fed group” value is “Two of eight and 2/8”. Further, the “Pathologic phosphorylated TDP-43-containing aggregates, quantification” value in data set [1] (lumbar spinal cord, SG-fed animals) was “increased”. Further, the Body weights result in data set [2] is “normal weight gain; also recorded: not significantly different”.
